Columns and labels:
[1] = tested on: tumor blood vessels of LLC cell tumors; test: Structural changes in tumor blood vessels after LPA administration (anti-CD31 immunostaining, AngioTool); assay type: in vivo; conditions: LLC tumor-bearing mice, LPA 3 mg/kg i.p.
Experimental: Lewis lung cancer cell line (hereinafter called LLC cells) was used as the mouse cancer cell line. LLC cells (1×10^6 cells in 100 μL PBS per animal) were subcutaneously injected into C57BL/6 NCrSlc mice aged 8 weeks (females, SLC, Inc.).
The LPA used was 18:1 LPA (Avanti Polar Lipids, Inc.). A 10 mM LPA stock solution was prepared using 50% ethanol and the solution was stored at −30° C. Before use, the LPA stock solution was thawed and homogenized with an ultrasonic cleaner (SND Co., Ltd.) for 1 minute. The solution was diluted in PBS before administration so that the concentration of LPA was 3 mg/kg in 100 μL PBS. The prepared solution was used for LPA administration.
Day 9 post-inoculation of LLC cells, mice that developed a tumor with a volume of 60 to 80 mm^3 (volume=length×width×height×0.5) were selected and used for the test. Four groups each of three mice were provided: control group, LPA/6 hr group, LPA/12 hr group and LPA/24 hr group. LPA was intraperitoneally administered to the mice of the LPA groups at a dose of 3 mg/kg in 100 μL PBS. The tumors were harvested before LPA administration (control group), and at 6, 12 and 24 hours after LPA administration. The tumors were immersed in 4% paraformaldehyde (PFA)/PBS and shaken at 4° C. overnight for fixation. The tumors were washed with cold PBS (4° C.). Washing was continued for 6 hours, and PBS was renewed every 30 minutes. The tumors were immersed in 15% sucrose/PBS and shaken at 4° C. for 3 hours. The tumors were then immersed in 30% sucrose/PBS and shaken at 4° C. for 3 hours. The tumors were embedded in O.C.T compound (Tissue-Tek) and frozen at −80° C. for 3 days or longer.
The tumors embedded in O.C.T. compound were sectioned at 40 μm with a cryostat (Leica). The sections were placed on glass slides, and air-dried for 2 hours with a drier. The sections were encircled with a liquid blocker. […] The vessel length was measured in the photographs using the vascular structure analysis software AngioTool.

[2] = tested on: lumen of tumor blood vessels of LLC cell tumors; test: Structural changes in lumen of tumor blood vessels (scanning electron microscopy); assay type: in vivo; conditions: LLC tumor-bearing mice, LPA 3 mg/kg i.p., 24 hours after administration
Experimental: LLC cells were subcutaneously inoculated into C57BL/6 NCrSlc mice aged 8 weeks (females, SLC, Inc.) in the same manner as in Example 1. An LPA administration solution was prepared in the same manner as in Example 1. Mice on day 9 post-inoculation of LLC cells (individuals with a tumor volume of 60 to 80 mm^3) were subjected to the experiment. The mice were divided into two groups: control group and LPA group (n=3). LPA (3 mg/kg in 100 μL PBS) or PBS (100 μL) was administered intraperitoneally. At 24 hours after LPA or PBS administration, mice were perfusion fixed under anesthesia with pentobarbital (Kyoritsu Seiyaku Corporation). The fixative used was 0.1 M phosphate buffer (pH 7.4) containing 2% formaldehyde and 2.5% glutaraldehyde. Tumors were then harvested and immersed in the same fixative as that used for perfusion and shaken at 4° C. overnight. The specimens were further immersed in 0.1 M phosphate buffer (pH 7.4) containing 1% osmium tetroxide and 0.5% potassium ferrocyanide. The specimens were dehydrated in an ascending series of ethanol, then the alcohol was replaced with t-butyl alcohol and the specimens were freeze-dried.

## lysophosphatidic acid [LPA]
[1]; 12 and 24 hours after administration
  structure of tumor blood vessels (vascular network): the formation of a fine vascular network similar to that in normal tissues was observed
[1]; 6 hours after administration
  structure of tumor blood vessels (vascular network): the connection of the blood vessels was observed
[1]; vs before administration
  average length of blood vessels (AngioTool): the length of blood vessels was increased
[2]
  intraluminal surface of tumor blood vessels: the intraluminal surface of the blood vessels was very smooth
